In patent US20250122174A1 (Shenzhen Yuanli Shenwan Innovative Medicine Co., Ltd., priority 2022, published 2025):

molecular target: HPK1 (Homo sapiens (Human), UniProt Q92918); test: HPK1 Inhibition Assay (ADP-Glo kinase assay); type: biochemical; conditions: ATP 10 μM
Procedure: A stock solution of 10 mM test compound was prepared in DMSO. The compound was prepared by 5-fold and 10-point serial dilutions with HPK1 kinase assay buffer. The HPK1 kinase assay buffer contained 40 mM Tris, pH 7.5; 20 mM MgCl2, 0.1 mg/ml BSA, and 50 μM DTT. 7.5 ng/μl of Active HPK1 (Promega, V4098) and 0.1 μg/ml MBP substrate protein were added to the reaction system. The final concentration of ATP in the HPK1 kinase reaction system was 10 μM. Serial diluted compounds were transferred to the reaction system and incubated at room temperature for 1 hr. 5 μL of ADP-Glo™ Reagent (Promega, V9101) was added and incubated for 40 min to stop the kinase reaction and deplete the unconsumed ATP. […] The luminescence was measured with a plate-reading luminometer.

Chain of HPK1 (Q92918 1-346 limits assumed): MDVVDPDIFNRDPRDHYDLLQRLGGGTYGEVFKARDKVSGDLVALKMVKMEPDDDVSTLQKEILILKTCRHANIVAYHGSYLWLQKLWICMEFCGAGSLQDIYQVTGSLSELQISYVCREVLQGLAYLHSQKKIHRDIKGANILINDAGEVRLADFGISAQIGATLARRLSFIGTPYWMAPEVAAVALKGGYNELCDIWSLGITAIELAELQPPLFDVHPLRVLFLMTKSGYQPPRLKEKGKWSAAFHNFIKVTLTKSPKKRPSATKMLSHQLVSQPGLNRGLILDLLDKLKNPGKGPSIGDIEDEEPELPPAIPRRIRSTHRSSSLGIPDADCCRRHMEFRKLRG

Row | IC50 [µM] | SMILES
1 | < 0.1 | CC(C)n1ncc2c(N3C[C@@H](C)[C@@H](N)C3)c(NC(=O)c3ccc(=O)n(-c4c(F)cccc4F)n3)ccc21 [Example 180, N-(4-((3R,4R)-3-amino-4-methylpyrrolidin-1-yl)-1-isopropyl-1H-indazol-5-yl)-1-(2,6-difluorophenyl)-6-oxo-1,6-dihydropyridazine-3-carboxamide]
2 | < 0.1 | Cc1nc2c(N3C[C@H](N)C(C)(C)C3)c(NC(=O)c3ccc(=O)n(-c4c(F)cccc4F)n3)ccc2n1[C@H]1CCOC1 [Example 150, N-(4-((R)-4-amino-3,3-dimethylpyrrolidin-1-yl)-2-methyl-1-((S)-tetrahydrofuran-3-yl)-1H-benzo[d]imidazol-5-yl)-1-(2,6-difluorophenyl)-6-oxo-1,6-dihydropyridazine-3-carboxamide]
3 | < 0.1 | CC(C)c1nc2c(N3CC[C@H](N)C3)c(NC(=O)c3ccnn(-c4c(F)cccc4F)c3=O)ccc2n1C [Example 46, (S)—N-(4-(3-aminopyrrolidin-1-yl)-2-isopropyl-1-methyl-1H-benzo[d]imidazol-5-yl)-2-(2,6-difluorophenyl)-3-oxo-2,3-dihydropyridazine-4-carboxamide]
4 | < 0.1 | CC(C)n1ncc2c(N3CC(N)C4(COC4)C3)c(NC(=O)c3ccc(=O)n(-c4c(F)cccc4F)n3)ccc21 (centres unmarked) [Example 206, N-(4-(8-amino-2-oxa-6-azaspiro[3.4]octan-6-yl)-1-isopropyl-1H-indazol-5-yl)-1-(2,6-difluorophenyl)-6-oxo-1,6-dihydropyridazine-3-carboxamide]
5 | < 0.1 | CC(C)n1ncc2c(N3C[C@H](C)[C@@H](N)C3)c(NC(=O)c3ccc(=O)n(-c4c(F)cccc4F)n3)ccc21 [Example 209, N-(4-((3R,4S)-3-amino-4-methylpyrrolidin-1-yl)-1-isopropyl-1H-indazol-5-yl)-1-(2,6-difluorophenyl)-6-oxo-1,6-dihydropyridazine-3-carboxamide]
6 | < 0.1 | N#Cc1ccncc1-c1ccc(NC(=O)c2ccc(=O)n(-c3c(F)cccc3F)n2)c(N2CCC(N)CC2)c1 [Example 346, N-(2-(4-aminopiperidin-1-yl)-4-(4-cyanopyridin-3-yl)phenyl)-1-(2,6-difluorophenyl)-6-oxo-1,6-dihydropyridazine-3-carboxamide]
7 | < 0.1 | Cc1nc2c(N3CC[C@H](O)C3)c(NC(=O)c3ccc(=O)n(-c4c(F)cccc4F)n3)ccc2n1C [Example 82, (S)-1-(2,6-difluorophenyl)-N-(4-(3-hydroxypyrrolidin-1-yl)-1,2-dimethyl-1H-benzo[d]imidazol-5-yl)-6-oxo-1,6-dihydropyridazine-3-carboxamide]
8 | < 0.1 | N#Cc1ccncc1-c1ccc(NC(=O)c2ccc(=O)n(-c3c(F)cccc3F)n2)c(N2C[C@H](N)C[C@H]2CO)c1 [Example 351, N-(2-((2S,4R)-4-amino-2-(hydroxymethyl)pyrrolidin-1-yl)-4-(4-cyanopyridin-3-yl)phenyl)-1-(2,6-difluorophenyl)-6-oxo-1,6-dihydropyridazine-3-carboxamide]
9 | < 0.1 | Cn1ncc2c(N3CCC[C@@H](N)C3)c(NC(=O)c3ccc(=O)n(-c4c(F)cccc4F)n3)cc(F)c21 [Example 169, (R)-N-(4-(3-aminopiperidin-1-yl)-7-fluoro-1-methyl-1H-indazol-5-yl)-1-(2,6-difluorophenyl)-6-oxo-1,6-dihydropyridazine-3-carboxamide]
10 | 0.1 to 1 | Cn1ncc2c(N3C[C@@H]4C[C@H]3CN4)c(NC(=O)c3ccc(=O)n(-c4c(F)cccc4F)n3)ccc21 [Example 87, N-(4-((1S,4S)-2,5-diazabicyclo[2.2.1]heptan-2-yl)-1-methyl-1H-indazol-5-yl)-1-(2,6-difluorophenyl)-6-oxo-1,6-dihydropyridazine-3-carboxamide]
11 | < 0.1 | Cc1nc2c(N3CCC4(CNC4)C3)c(NC(=O)c3ccc(=O)n(-c4c(F)cccc4F)n3)ccc2n1C [Example 85, 1-(2,6-difluorophenyl)-N-(1,2-dimethyl-4-(2,6-diazaspiro[3.4]octan-6-yl)-1H-benzo[d]imidazol-5-yl)-6-oxo-1,6-dihydropyridazine-3-carboxamide]
12 | < 0.1 | CC(C)n1ncc2c(N3C[C@H](N)C4(CC4)C3)c(NC(=O)c3ccc(=O)n(-c4c(F)cccc4F)n3)cc(F)c21 [Example 189, (R)-N-(4-(7-amino-5-azaspiro[2.4]heptan-5-yl)-7-fluoro-1-isopropyl-1H-indazol-5-yl)-1-(2,6-difluorophenyl)-6-oxo-1,6-dihydropyridazine-3-carboxamide]
13 | < 0.1 | Cn1c(C(F)(F)F)nc2c(N3CCC[C@H]3CN)c(NC(=O)c3ccnn(-c4c(F)cccc4F)c3=O)ccc21 [Example 40, (S)-N-(4-(2-(aminomethyl)pyrrolidin-1-yl)-1-methyl-2-(trifluoromethyl)-1H-benzo[d]imidazol-5-yl)-2-(2,6-difluorophenyl)-3-oxo-2,3-dihydropyridazine-4-carboxamide]
14 | < 0.1 | Cc1nn(C(C)C)c2ccc(NC(=O)c3ccc(=O)n(-c4c(F)cccc4F)n3)c(N3C[C@H](N)C4(CC4)C3)c12 [Example 202, (R)-N-(4-(7-amino-5-azaspiro[2.4]heptan-5-yl)-1-isopropyl-3-methyl-1H-indazol-5-yl)-1-(2,6-difluorophenyl)-6-oxo-1,6-dihydropyridazine-3-carboxamide]
15 | 0.1 to 1 | Cc1nc2c(N3CCCC4(CNC4)C3)c(NC(=O)c3ccc(=O)n(-c4c(F)cccc4F)n3)ccc2n1C [Example 84, 1-(2,6-difluorophenyl)-N-(1,2-dimethyl-4-(2,6-diazaspiro[3.5]nonan-6-yl)-1H-benzo[d]imidazol-5-yl)-6-oxo-1,6-dihydropyridazine-3-carboxamide]
16 | < 0.1 | Cn1c(C(C)(C)C)nc2c(N3CC[C@H](N)C3)c(NC(=O)c3ccc(=O)n(-c4c(F)cccc4F)n3)ccc21 [Example 98, N-{4-[(3S)-3-aminopyrrolidin-1-yl]-2-tert-butyl-1-methyl-1,3-benzodiazol-5-yl}-1-(2,6-difluorophenyl)-6-oxopyridazine-3-carboxamide]
17 | < 0.1 | CC[C@H]1CN(c2c(NC(=O)c3ccc(=O)n(-c4c(F)cccc4F)n3)cc(F)c3c2cnn3C(C)C)C[C@H]1N [Example 203, N-(4-((35,4S)-3-amino-4-ethylpyrrolidin-1-yl)-7-fluoro-1-isopropyl-1H-indazol-5-yl)-1-(2,6-difluorophenyl)-6-oxo-1,6-dihydropyridazine-3-carboxamide]
18 | < 0.1 | [2H]C([2H])([2H])n1cc2c(N3C[C@@H](C)[C@@H](N)C3)c(NC(=O)c3ccc(=O)n(-c4c(F)cccc4F)n3)ccc2n1 [Example 178, N-(4-((3R,4R)-3-amino-4-methylpyrrolidin-1-yl)-2-(methyl-d3)-2H-indazol-5-yl)-1-(2,6-difluorophenyl)-6-oxo-1,6-dihydropyridazine-3-carboxamide]
19 | < 0.1 | [2H]C([2H])([2H])C(n1cc2c(N3C[C@H](N)C4(CC4)C3)c(NC(=O)c3ccc(=O)n(-c4c(F)cccc4F)n3)ccc2n1)C([2H])([2H])[2H] [Example 339]
20 | < 0.1 | N[C@@H]1CCCN(c2c(NC(=O)c3ccc(=O)n(-c4c(F)cccc4F)n3)ccc3c2cnn3[C@@H]2CCOC2)C1 [Example 264, N-(4-((R)-3-aminopiperidin-1-yl)-1-((R)-tetrahydrofuran-3-yl)-1H-indazol-5-yl)-1-(2,6-difluorophenyl)-6-oxo-1,6-dihydropyridazine-3-carboxamide]
21 | < 0.1 | Cc1nc2c(N3CC[C@H](N)C3)c(NC(=O)c3ccc(=O)n(-c4c(F)cccc4F)n3)ccc2n1C1CCN(C)CC1 [Example 106, (S)—N-(4-(3-aminopyrrolidin-1-yl)-2-methyl-1-(1-methylpiperidin-4-yl)-1H-benzo[d]imidazol-5-yl)-1-(2,6-difluorophenyl)-6-oxo-1,6-dihydropyridazine-3-carboxamide]
22 | < 0.1 | Cn1c(C2(C(F)(F)F)CC2)nc2c(N3CC[C@@H](N)C3)c(NC(=O)c3ccc(=O)n(-c4c(F)cccc4F)n3)ccc21 [Example 146, (R)—N-(4-(3-aminopyrrolidin-1-yl)-1-methyl-2-(1-(trifluoromethyl)cyclopropyl)-1H-benzo[d]imidazol-5-yl)-1-(2,6-difluorophenyl)-6-oxo-1,6-dihydropyridazine-3-carboxamide]
23 | < 0.1 | C[C@@H]1CN(c2c(NC(=O)c3ccc(=O)n(-c4c(F)cccc4F)n3)ccc3nn(C4CCC(F)(F)CC4)cc23)C[C@@H]1N [Example 332, N-(4-((3R,4R)-3-amino-4-methylpyrrolidin-1-yl)-2-(4,4-difluorocyclohexyl)-2H-indazol-5-yl)-1-(2,6-difluorophenyl)-6-oxo-1,6-dihydropyridazine-3-carboxamide]
24 | < 0.1 | CC(C)c1nc2c(N3CC[C@@H](NC(=O)CN)C3)c(NC(=O)c3ccc(=O)n(-c4c(F)cccc4F)n3)ccc2n1C [Example 131, (R)-N-(4-(3-(2-aminoacetamido)pyrrolidin-1-yl)-2-isopropyl-1-methyl-1H-benzo[d]imidazol-5-yl)-1-(2,6-difluorophenyl)-6-oxo-1,6-dihydropyridazine-3-carboxamide]
25 | < 0.1 | COc1cccc(F)c1-c1nccc(C(=O)Nc2ccc(-c3cnccc3C#N)cc2N2CC[C@H](N)C2)c1F [Example 12, N-(2-((S)-3-aminopyrrolidin-1-yl)-4-(4-cyanopyridin-3-yl)phenyl)-3-fluoro-2-(2-fluoro-6-methoxyphenyl)isonicotinamide]

Row | SMILES | IC50 [µM]
26 | COc1cccc(F)c1-c1nccc(C(=O)Nc2ccc3c(nc(C)n3C)c2C2C[C@H]3C[C@@H]2CN3)c1F (stereo partly drawn) [Example 7, N-(4-((1S,4S)-2-azabicyclo[2.2.1]heptan-5-yl)-1,2-dimethyl-1H-benzo[d]imidazol-5-yl)-3-fluoro-2-(2-fluoro-6-methoxyphenyl)isonicotinamide] | < 0.1
